What all share (format): biochemical
The target in one assay is T1, MMP-2 (gelatinase) (Homo sapiens, UniProt P08253).
T1 construct: endogenous in cells; host or cells: human dermal fibroblasts (secreted into culture medium)
T1 sequence (P08253 110-660): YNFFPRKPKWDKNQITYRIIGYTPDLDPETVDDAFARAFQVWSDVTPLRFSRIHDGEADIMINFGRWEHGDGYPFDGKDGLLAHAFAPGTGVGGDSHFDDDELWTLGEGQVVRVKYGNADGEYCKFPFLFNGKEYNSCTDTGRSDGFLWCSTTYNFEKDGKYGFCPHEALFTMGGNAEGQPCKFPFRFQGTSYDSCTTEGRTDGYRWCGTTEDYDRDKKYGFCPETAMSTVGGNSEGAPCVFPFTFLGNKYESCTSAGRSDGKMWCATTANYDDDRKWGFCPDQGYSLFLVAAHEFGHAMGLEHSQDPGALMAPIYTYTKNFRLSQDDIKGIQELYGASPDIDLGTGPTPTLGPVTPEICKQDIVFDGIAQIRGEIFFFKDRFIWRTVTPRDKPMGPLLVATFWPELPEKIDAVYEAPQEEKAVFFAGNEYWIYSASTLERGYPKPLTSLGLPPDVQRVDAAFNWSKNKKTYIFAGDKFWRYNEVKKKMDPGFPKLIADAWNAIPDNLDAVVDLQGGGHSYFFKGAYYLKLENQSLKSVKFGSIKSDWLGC
The assay can be described thus: Quantitative fluorescence assay, inhibition of MMP-2. Particulars: 10 μM inhibitor; no explicit Ki value since the dixon plot is non-linear. As for the experimental part: Inhibition of the Matrix Metalloproteinase-2 (MMP-2)
MMP-2 (gelatinase) is supplied by cultivated dermal fibroblasts to the culture medium in considerable amounts and is thus easily accessible.
For this purpose, human dermal fibroblasts are obtained according to established standard methods and cultivated and the cell-free culture supernatant is treated with trypsin. Trypsin is then inactivated with a specific inhibitor (TLCK) and active MMP-2 is partially purified by affinity chromatography on gelatin sepharose and subsequent gel filtration on sepharose. MMP-2 was identified and characterized by the availability of a commercial immunoassay.
(§1) Quantitative Fluorescence Assay for Matrix Metalloproteinases
(§2) The fluorescent group Mca is separated from the internal quencher Dpa by enzymatic cleavage of the synthetic substrate Mca-Pro-Leu-Gly-Leu-Dpa-Ala-Arg-NH2 using the respective collagenase. This is accompanied by a great increase in fluorescence in the measuring batch, which can be quantified using a fluorimeter (λex 328 nm, λem 393 nm) and proceeds linearly within the first few minutes. A certain specificity of the test to matrix metalloproteinases follows from the amino acid sequence-Pro-Leu-Gly-Leu-in the substrate, on the one hand, and from the select incubation conditions, on the other hand. Matrix metalloproteinases cleave the substrate at the Gly-Leu bond. The proteolytic residual activity of pre-incubated batches of enzyme and inhibitor is measured, the substrate and enzyme concentrations having been kept constant and the inhibitor concentration having been varied. Three series of measurements using a different substrate concentration were made for each tested inhibitor. The enzyme activity is calculated in fluorescence units per min. on the basis of the time-sensitive fluorescence increase. The Ki values were determined graphically according to the DIXON method (1953) by applying the reciprocal reaction rate 1/v (y axis) against inhibitor concentration (x axis).
(§3) 2 μl inhibitor dissolved in DMSO, or DMSO alone (non-inhibitory approach) 4 μl enzyme (MMP-2 or MMP-9 or catalytic domain of MMP-8)
(§4) 5 min. preliminary incubation of the enzyme-inhibitor mixture at room temperature while stirring start of the reaction with 10 μl substrate dissolved in DMSO recording of the time-sensitive fluorescence increase over a period of 2 min.
(§5) Inhibition of human MMPs by the inhibitors of general formulae Ia and Ib according to the invention

Assay [1] has as its target T2, recombinant catalytic domain of MMP-8 (Homo sapiens, UniProt P22894).
T2 construct: instead of the whole enzyme only its enzymatically active catalytic domain was cloned into E. coli; made in house; host or cells: E. coli
The assay can be described thus: Quantitative fluorescence assay, inhibition of catalytic domain of MMP-8. Particulars: for MMP-8 inhibition with 10 μM: 10 μM inhibitor, no explicit Ki value since the dixon plot is non-linear.
Excerpt: Cloning and Expression of the Catalytic MMP-8 Domain
The catalytic MMP-8 domain was used as another test enzyme because it has a high degree of stability and is also available as an active enzyme and therefore needs not be activated, which is in consideration as one of the most frequent causes of error since the mercury compounds used for the activation often interfere with the test system and/or the enzyme and in this way can falsify the measuring results. The cloning strategy was directed towards the circumstance that instead of the whole enzyme only its enzymatically active catalytic domain was cloned into E. coli.
The cloning and expression of the recombinant catalytic MMP-8 domain was carried out in accordance with the statements made by SCHNIERER et al. (Schnierer S., Kleine T., Gote T., Hillemann A., Knäuper V., Tschesche H.: The recombinant catalytic domain of human neutrophil collagenase lacks type I collagen substrate specificity. Biochem Biophys Res Comm (1993), vol. 191, No. 2, 319-326).
as §1, §2, §3, §4, §5

Assay [2] deals with T3, MT1-MMP (recombinant catalytic domain of MMP-14) (Homo sapiens, UniProt P50281).
T3 construct: recombinant catalytic domain of MMP-14
Briefly: Quantitative fluorescence assay, inhibition of MT1-MMP. The conditions noted are these: for Ki: DIXON method.
Excerpt: In particular when used as medicaments, specific inhibitors would only influence the desired target enzymes but not disturb the balanced interplay of the other MMPs, thus helping to avoid possible undesired side-effects.
as §1, §2, §5

The target in another assay is T4, MMP-9 (Homo sapiens, UniProt P14780).
T4 construct: from tissue; host or cells: human buffy coat (blood leukocytes)
T4 sequence (P14780 107-707 limits assumed): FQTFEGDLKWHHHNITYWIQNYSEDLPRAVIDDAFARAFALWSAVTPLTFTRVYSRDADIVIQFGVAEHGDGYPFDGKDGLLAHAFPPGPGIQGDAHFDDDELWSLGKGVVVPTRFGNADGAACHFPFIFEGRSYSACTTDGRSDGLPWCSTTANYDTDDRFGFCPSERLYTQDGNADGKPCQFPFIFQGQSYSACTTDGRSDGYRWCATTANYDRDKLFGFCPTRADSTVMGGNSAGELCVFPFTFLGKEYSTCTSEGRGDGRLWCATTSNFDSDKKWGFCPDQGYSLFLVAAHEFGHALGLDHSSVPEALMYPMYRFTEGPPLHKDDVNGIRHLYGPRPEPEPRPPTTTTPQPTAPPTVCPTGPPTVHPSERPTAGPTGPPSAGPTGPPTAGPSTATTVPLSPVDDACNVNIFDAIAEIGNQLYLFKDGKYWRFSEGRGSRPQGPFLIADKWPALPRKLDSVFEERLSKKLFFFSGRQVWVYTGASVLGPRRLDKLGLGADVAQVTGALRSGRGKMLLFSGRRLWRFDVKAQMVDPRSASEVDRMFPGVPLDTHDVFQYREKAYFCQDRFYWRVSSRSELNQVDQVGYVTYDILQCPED
The assay can be described thus: Quantitative fluorescence assay, inhibition of MMP-9. The conditions noted are these: for Ki: DIXON method; for MMP-9 inhibition with 10 μM: 10 μM inhibitor, no explicit Ki value since the dixon plot is non-linear. The method, then: Preparation of the Human Collagenase MMP-9
Native MMP-9 was obtained reproducibly and with good yield and purity from human Buffy Coat. For this purpose, Buffy Coat is brought to a final concentration of 0,4% using 10% (v/v) triton X-100, shaken on ice for 30 min. and then 1 vol. double binding buffer (40 mM Tris-HCl, pH 7.5, 10 mM CaCl2, 1 M NaCl, 0.2% (v/v) triton X-100) is added and shaking on ice is continued for another 30 min.
The solution is centrifuged off at 16,000 rpm on an SS-34 rotor at 4° C. for 15 min. and filtered on glass wool. The filtrate is batched with gelatin agarose equilibrated with binding buffer and shaken on ice for 1 hour.
The charged gelatin agarose is transferred to a column and rinsed in protein-free manner using at least 10 vol. binding buffer. The bound MMP-9 is eluted with 2 gel volumes binding buffer plus 5% (v/v) DMSO.
For an exchange of buffers and simultaneous separation of minor MMP-2 contaminations the eluate can be separated on sephadex G-75 by means of gel filtration. Buffer I (20 mM Tris-HCl, pH 7.5, 5 mM CaCl2, 100mM NaCl, 0.1% (v/v) triton X-100) is used for this purpose.
The resulting eluate contains MMP-9 in the three known configurations: monomer, homodimer, heterodimer. The purity of the enzyme is about 90%, the rest of the foreign proteins being fibronectin and extremely small amounts of TIMPs.
The latent enzyme is activated by incubation at 37° C. using 1/100 vol. trypsin (10 mg/ml), for 30-60 min. Trypsin is inhibited by adding 1 mM PMSF or with a specific inhibitor (TLCK).
as §1
as §2, with “A certain specificity of the test to matrix metalloproteinases follows from the amino acid sequence-Pro-Leu-Gly-Leu-in the substrate, on the one hand, and from the select incubation conditions, on the other hand. Matrix metalloproteinases cleave the substrate at the Gly-Leu bond.” left out, “Three series of measurements using a different substrate concentration were made for each tested inhibitor.” left out, “axis). […]” for “axis).”
5 min. preliminary incubation of the enzyme-inhibitor mixture at room temperature while stirring start of the reaction with 10 μl substrate dissolved in DMSO recording of the time-sensitive fluorescence increase over a period of 2 min. […]

The structures appear in SMILES notation.

T2 sequence (P22894 100-262 limits assumed): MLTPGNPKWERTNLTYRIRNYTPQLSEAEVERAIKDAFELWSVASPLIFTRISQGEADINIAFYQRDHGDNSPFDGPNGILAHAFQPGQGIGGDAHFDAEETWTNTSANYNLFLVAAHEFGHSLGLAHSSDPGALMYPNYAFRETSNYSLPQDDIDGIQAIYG

For the compound `O=c1c2ccccc2nc2n1C[C@H](CS)S2` (racemic) [Example 1, (R,S)-2-Mercaptomethyl-2,3-dihydro-5H-thiazolo(2,3-b]-quinazoline-5-one], the “MMP-2 inhibition with 10 μM” value on MMP-2 (gelatinase) is given as 70%. Further, the “MMP-8 inhibition with 10 μM” value in assay [1] is 80%. Moreover, in assay [2] (2.5 μM inhibitor, no explicit Ki value since the dixon plot is non-linear), the “MT1-MMP inhibition with 2.5 μM” value is on record as 50% inhi-.

Take `C[C@]1(CS)Cn2c(nc3ccccc3c2=O)S1` (racemic) [Example 2, (R,S)-2-mercaptomethyl-2-methyl-2,3-dihydro-5H-thiazolo[2,3-b]quinazoline-5-one]: the “MMP-2 inhibition with 10 μM” value at MMP-2 (gelatinase) stood at 50%. Besides, the “MMP-8 inhibition with 10 μM” value in assay [1] is reported as 85%. Moreover, the Ki (in general, a dissociation constant, usually derived from enzyme kinetics or from competition with a known ligand) on MMP-9 was determined as 1 µM; in assay [2] it was 4 µM.

As for `O=c1c2ccc(Cl)cc2nc2n1C[C@H](CS)S2` (racemic) [Example 5, (R,S)-8-chloro-2-mercaptomethyl-2,3-dihydro-5H-thiazolo(2,3-b]quinazoline-5-one], the “MMP-2 inhibition with 10 μM” value at MMP-2 (gelatinase) was 80%. In addition, in assay [1], the “MMP-8 inhibition with 10 μM” value is 90%. For the same compound, the “MMP-9 inhibition with 10 μM” value on MMP-9 stood at 85%. For the same compound, the “MT1-MMP inhibition with 10 μM” value in assay [2] (10 μM inhibitor, no explicit Ki value since the dixon plot is non-linear) is reported as 85%.

With `O=C(O)c1ccc2c(=O)n3c(nc2c1)S[C@@H](CS)C3` (racemic) [Example 3, (R,S)-8-carboxy-2-mercaptomethyl-2,3-dihydro-5H-thiazolo [2,3-b]quinazoline-5-one], the “MMP-2 inhibition with 10 μM” value on MMP-2 (gelatinase) is 25%. Also, the Ki came to 24 µM in assay [1] (DIXON method), 15 µM on MMP-9 and 21 µM in assay [2].

As for `O=c1c2ccccc2nc2n1[C@H](CS)CS2` (racemic) [Example 4, (R,S)-3-mercaptomethyl-2,3-dihydro-5H-thiazolo[2,3-b]quinazoline-5-one], the “MMP-2 inhibition with 10 μM” value at MMP-2 (gelatinase) was determined as 50%. Also, the “MMP-8 inhibition with 10 μM” value in assay [1] is 25%. Besides, at MMP-9, the “MMP-9 inhibition with 10 μM” value was 75%. Further, the Ki in assay [2] was 55 µM.

The values above are taken from patent publication US20040023953A1, “Tricylic mercaptomethyl-substituted 2,3-dihydro-quinazolin-5-ones and 2,3-dihydro-benzo-[1,2,4]-thiadiazin-5,5-dioxides as matrix metalloproteinase (MMP) inhibitors” (priority 2000, published 2004).
